Data taken from paper PMC7856885 (Advanced Science, 2020).
“Also recorded” adds a separate entry of the source. Where two headings read alike, the source gives them in different places. Residues, ends and D or L forms follow the SMILES beside them. *: point of attachment. X1 = CC(=O)O[C@H]1C(=O)[C@@]2(C)[C@H]([C@H](OC(=O)c3ccccc3)[C@]3(O)C[C@H](OC(=O)[C@H](OC(=O)CC(=O)*)[C@@H](NC(=O)c4ccccc4)c4ccccc4)C(C)=C1C3(C)C)[C@]1(OC(C)=O)CO[C@@H]1C[C@@H]2O

Assays:
[1] = target: T1, recombinant human MMP‐2 protein (Homo sapiens, UniProt P08253); assay: Release study: cleavage by MMP‐2, HPLC/MS; type: in vitro ADME
T1 construct: purchased PeproTech (Rocky Hill, NJ, USA)
T1 sequence (P08253 110-660): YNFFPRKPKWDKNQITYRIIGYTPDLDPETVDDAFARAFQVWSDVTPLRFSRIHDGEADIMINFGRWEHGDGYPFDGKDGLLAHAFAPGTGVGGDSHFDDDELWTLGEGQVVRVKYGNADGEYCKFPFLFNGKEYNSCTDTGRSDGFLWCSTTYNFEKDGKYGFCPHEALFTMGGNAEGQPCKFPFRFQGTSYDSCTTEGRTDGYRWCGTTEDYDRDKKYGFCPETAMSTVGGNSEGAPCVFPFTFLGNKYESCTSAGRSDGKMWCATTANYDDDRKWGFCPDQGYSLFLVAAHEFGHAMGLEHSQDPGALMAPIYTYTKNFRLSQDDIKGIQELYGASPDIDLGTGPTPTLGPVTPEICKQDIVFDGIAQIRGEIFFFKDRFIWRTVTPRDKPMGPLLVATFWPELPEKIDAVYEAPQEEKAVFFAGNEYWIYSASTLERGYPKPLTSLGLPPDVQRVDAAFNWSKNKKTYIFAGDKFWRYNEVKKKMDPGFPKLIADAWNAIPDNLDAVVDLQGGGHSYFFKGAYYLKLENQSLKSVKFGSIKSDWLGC
Experimental: The recombinant human MMP‐2 protein with 62.0 kDa molecular weight was purchased from PeproTech (Rocky Hill, NJ, USA). To observe the ability of cleavage in vitro, MMP‐2 was incubated with 4‐aminophenylmercuric acetate (7 × 10^−3 M) at 37 °C for 1 h. […] The reacting solution (50 µL) was then collected and analyzed through HPLC/MS. The spectra data were collected at 220 nm using gradient solvent conditions. BEH C18, 1.7 × 10^−6 м, 100 × 2.1 mm column was used. The chromatographic conditions used for the analyses were: solvent A – 0.1% formic acid in water; solvent B – 0.1% formic acid in acetonitrile: 0–15 min: 2% MeCN, 15–18 min: 100% MeCN, 18–20 min: 2% MeCN, with a flow rate of 0.3 mL min^−1.

[2] = Real‐time fluorescence imaging (Cy5) and biodistribution analysis; type: in vivo, U87MG xenograft nude mice; conditions: Cy5‐labeled; for Drug distribution at the tumor site in the brain: 5.25 µmol/5 mL kg^−1
Experimental: An untreated group was administered with physiological saline as a control. Real‐time fluorescence images were captured and analyzed using the IVIS Lumina Imaging System (PerkinElmer, Waltham, MA). […] At 0.5, 2, 4, 12, 24 and 48 h after administration, 3 mice were taken from each group to capture real‐time fluorescence images of the tumor and drug distribution, and the images were analyzed by the IVIS Lumina Imaging System. The excitation and emission quantitative wavelengths used were 640 nm and 700 nm, respectively. At the end of each experiment, animals were euthanized and their brains, lungs, hearts, livers, and kidneys were harvested and further tested by the IVIS Lumina imaging system to determine the drug distribution in tissue from each organ.

[3] = Cerebral distribution: free PTX in tumor and tumor‐free brain tissue by HPLC/MS; type: in vivo, nude mice with orthotopic U87MG transplantation
Experimental: PTX levels in the mouse brains were measured by the HPLC/MS method. […] Tumor‐free brain tissue as well as the tumor were isolated and weighed separately. The tissue was placed on a 35 mm dish and washed with PBS on ice. The tissue was then cut into small pieces with a surgical scissor and transferred into a 1.5 mL centrifuge tube. Appropriate amounts of 50% methanol were added into the tube to prepare the tissue suspension (0.2 g mL^−1). The tissue suspensions were thoroughly homogenized by an ultrasonic cell disrupter. Thereafter, the tissue homogenates were centrifuged at 10 000 × g for 30 min. The precipitate was removed, and the supernatant was collected for further content analysis by HPLC/MS. […] The drug response values were obtained and analyzed.

[4] = system: MMP‐2; assay: recombinant human MMP‐2 protein (5 ng µL^−1), activated with 4‐aminophenylmercuric acetate; conditions: 37 °C, up to 3 h
[5] = tumor tissue from brains of nude mice with orthotopic U87MG transplantation after i.v. injection; conditions: BALB/C athymic nude mice, up to 12 h
[6] = tumor‐free (normal) brain tissue of nude mice with orthotopic U87MG transplantation after i.v. injection; conditions: BALB/C athymic nude mice, up to 12 h
[7] = Solubility in PBS at 3 mg mL^−1 (appearance of the solution); type: physicochemical
[8] = system: U251; assay: MTS cell proliferation assay; type: cell-based; conditions: Homo sapiens
Experimental: (§1) The human GBM cell lines (U87MG and U251) were respectively obtained from the American Type Culture Collection (ATCC, Manassas, VA) and the China Academic Sinica Cell Repository (Shanghai, China) and cultured in accordance with the protocol of the supplier. In brief, all the cell lines were maintained in Dulbecco's Modified Eagle Medium (DMEM; Gibco, Grand Island, NY) supplemented with 10% fetal bovine serum (FBS; Biological Industries, Kibbutz Beit Haemek, Israel). Cells were incubated in a humidified incubator at 37 °C under 5% CO2 atmosphere.
(§2) The cells treated with PBS and 100 × 10^−6 м SynB3‐PVGLIG were used as the control and the dual‐functional peptide control, respectively. After treatment, the cells were washed with PBS three times and subsequently incubated with 20 µL Cell Titer 96AQeuous One Solution Reagent (Promega, Madison, WI, USA) for 2 h at 37 °C. The absorbance was measured on a Synergy microplate reader (BioTek Instruments, Winooski, VT) at 490 nm. All the data were obtained from three independent experiments performed in three wells. The absorbance of cells in the control group was taken as 100% viability, and the inhibition rate of cell viability was counted by using the following equation: % Inhibition rate = (Absorbancecontrol − Absorbancetest)/(Absorbancecontrol − Absorbanceblank) × 100.

[9] = system: U87MG; assay: MTS cell proliferation assay; type: cell-based; conditions: Homo sapiens, U-87 MG, linear regression
Experimental: as §1, §2

[10] = system: U251+MMP‐2 siRNA; assay: MTS cell proliferation assay; type: cell-based; conditions: Homo sapiens
Experimental: as §1
(§3) Homo‐MMP‐2 siRNA and nonsilencing siRNA were designed and synthesized by GenePharma (Suzhou, China). The transfection of siRNA was performed using the X‐tremeGENE siRNA transfection reagent (Roche, Mannheim, Germany) in accordance with the manufacturer's instructions. Before transfection, all the cell lines were inoculated at a density of 5 × 10^5 cells per well in a 6‐well plate. After incubation overnight, the cells were washed with fresh DMEM medium without FBS. At the same time, the reagent of transfection was mixed with homo‐MMP‐2 siRNA or nonsilencing siRNA (50 × 10^−9 м) for 15 min at a room temperature. The solution of the transfection complex was then added into the cell for 24 h. As a negative control group, a nonsilencing siRNA was transfected in the cell line in order to eliminate the influence of the transfection reagent.
as §2

[11] = system: U87MG+MMP‐2 siRNA; assay: MTS cell proliferation assay; type: cell-based; conditions: Homo sapiens
Experimental: as §1, §3, §2

[12] = 5.25 µmol/5 mL kg^−1, tail vein

| IC50 ([8]; U-251, U251, 4 h) | IC50 ([8]; U-251, U251, 24 h) | IC50 ([8]; U-251, U251, 48 h) | IC50 ([9]; 4 h) | IC50 ([9]; 24 h) | IC50 ([9]; 48 h) | IC50 ([10]; 4 h) | IC50 ([10]; 24 h) | IC50 ([10]; 48 h) | IC50 ([11]; 4 h) | IC50 ([11]; 24 h) | IC50 ([11]; 48 h) | Compound | Drug distribution at the tumor site in the brain [2] | Tissues in which the fluorescence signal (Cy5) was mainly detected [2, 12] | also measured |
| --- | --- | --- | --- | --- | --- | --- | --- | --- | --- | --- | --- | --- | --- | --- | --- |
|  |  |  |  |  |  |  |  |  |  |  |  | CC[C@H](C)[C@H](NC(=O)[C@H](CC(C)C)NC(=O)CNC(=O)[C@@H](NC(=O)[C@@H]1CCCN1C(=O)CC(=O)O[C@@H](C(=O)O[C@H]1C[C@@]2(O)[C@@H](OC(=O)c3ccccc3)[C@@H]3[C@]4(OC(C)=O)CO[C@@H]4C[C@H](O)[C@@]3(C)C(=O)[C@H](OC(C)=O)C(=C1C)C2(C)C)[C@@H](NC(=O)c1ccccc1)c1ccccc1)C(C)C)C(=O)NCC(=O)N[C@@H](CCCNC(=N)N)C(=O)N[C@@H](CCCNC(=N)N)C(=O)N[C@@H](CC(C)C)C(=O)N[C@@H](CO)C(=O)N[C@@H](Cc1ccc(O)cc1)C(=O)N[C@@H](CO)C(=O)N[C@@H](CCCNC(=N)N)C(=O)N[C@@H](CCCNC(=N)N)C(=O)N[C@@H](CCCNC(=N)N)C(=O)N[C@@H](Cc1ccccc1)C(=O)O [SynB3‐PVGLIG‐PTX, PTX‐2′OH‐malonyl‐PVGLIG‐SynB3] (X1-PVGLIGRRLSYSRRRF-OH) | mainly distributed in the transplanted gliomas | bladder, liver, kidneys, lungs, and brain | Cleavage without MMP‐2 ([1]; 2.5 mg mL^−1, no MMP‐2, HPLC/MS, neither PVG‐PTX nor free PTX detected): could not be cleaved; Percentage of conjugate cleaved by MMP‐2 ([1]; 2.5 mg mL^−1 conjugate, activated MMP‐2 5 ng µL^−1, 0.5 h, HPLC/MS): about 41.18%; Fluorescent signal at 48 h ([2]; 5.25 µmol/5 mL kg^−1, 48 h): could still be detected in brain; Time at which the fluorescent signal in the brain tumor peaked ([2]; 5.25 µmol/5 mL kg^−1, tail vein, imaged 0.5–48 h): 12 h; PTX concentration in tumor, times that of the normal brain ([3]; 2 h after single dose 5.25 µmol/5 mL kg^−1 i.v.): 20 times; Concentration of PTX in the tumor tissue, finally reached ([3]; last time point (sampling 2, 4, 12 h), single dose 5.25 µmol/5 mL kg^−1 i.v., HPLC/MS, n = 5): 456.32 µg G^−1; mean diameter of nanocomplex: 162 nm |
|  |  |  |  |  |  |  |  |  |  |  |  | PVGLIG-RRLSYSRRRF |  |  | fragment found [4]: PVG‐PTX, 0.5 h; also recorded: SynB3-LIG; fragment found [5]: free PTX, 2 h; fragment found [6]: free PTX, 2 h |
| 181 µM | 47.1 µM | 27.4 µM | 148 µM | 46.3 µM | 31.3 µM | 136 µM | 31.5 µM | 23.6 µM | 209 µM | 37.3 µM | 28.5 µM | CC(=O)O[C@H]1C(=O)[C@@]2(C)[C@H]([C@H](OC(=O)c3ccccc3)[C@]3(O)C[C@H](OC(=O)[C@H](O)[C@@H](NC(=O)c4ccccc4)c4ccccc4)C(C)=C1C3(C)C)[C@]1(OC(C)=O)CO[C@@H]1C[C@@H]2O [PTX, Paclitaxel] | no drug distribution was detected | lungs, liver, and kidneys | Solubility in PBS (appearance) [7]: nearly insoluble |
| 3070 µM | 660 µM | 213 µM | 392 µM | 382 µM | 514 µM | 3300 µM | 869 µM | 131 µM | 471 µM | 414 µM | 280 µM | Cn1nnc2c(C(N)=O)ncn2c1=O [TMZ, Temozolomide] |  |  | Solubility in PBS (appearance) ([7]; 3 mg mL^−1 in PBS, visual): nearly insoluble |
